Data on 29 compounds can be found in patent publication US8361998B2, “Compounds and their use as IKACh blockers” (AstraZeneca AB, priority 2010, dated 2013).

pIC50: −log10 of the molar value.

The target of one assay is T1, human cardiac ion channel proteins hKir3.1/Kir3.4 (Homo sapiens, UniProt P48544+P48549).
T1 construct: expressed in transfected cells
T1 sequence (P48549 1-501): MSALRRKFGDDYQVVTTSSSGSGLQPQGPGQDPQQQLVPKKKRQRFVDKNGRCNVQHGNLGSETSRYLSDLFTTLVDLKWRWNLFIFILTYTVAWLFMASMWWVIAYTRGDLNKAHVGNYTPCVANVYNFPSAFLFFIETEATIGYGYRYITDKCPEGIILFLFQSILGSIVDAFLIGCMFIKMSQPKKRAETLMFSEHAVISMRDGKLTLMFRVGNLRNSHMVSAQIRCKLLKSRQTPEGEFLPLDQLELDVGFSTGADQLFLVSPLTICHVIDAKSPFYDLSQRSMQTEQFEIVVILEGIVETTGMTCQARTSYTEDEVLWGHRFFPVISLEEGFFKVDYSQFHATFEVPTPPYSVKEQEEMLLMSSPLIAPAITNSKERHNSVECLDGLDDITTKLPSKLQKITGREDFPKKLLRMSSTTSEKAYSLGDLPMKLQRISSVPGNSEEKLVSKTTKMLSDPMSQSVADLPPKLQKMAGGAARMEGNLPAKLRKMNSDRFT
T1 sequence (P48544 1-419): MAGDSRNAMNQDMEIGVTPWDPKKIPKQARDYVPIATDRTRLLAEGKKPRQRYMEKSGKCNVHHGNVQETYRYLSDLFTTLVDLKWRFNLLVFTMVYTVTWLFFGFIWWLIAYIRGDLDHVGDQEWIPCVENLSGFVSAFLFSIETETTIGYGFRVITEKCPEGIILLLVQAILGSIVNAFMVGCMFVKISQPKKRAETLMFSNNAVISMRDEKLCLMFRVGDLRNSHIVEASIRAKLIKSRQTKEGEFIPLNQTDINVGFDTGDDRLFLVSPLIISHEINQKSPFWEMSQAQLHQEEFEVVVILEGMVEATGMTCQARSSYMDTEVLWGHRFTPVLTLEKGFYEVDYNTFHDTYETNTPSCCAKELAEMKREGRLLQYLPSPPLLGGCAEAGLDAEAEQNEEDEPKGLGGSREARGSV
The experiment in a line: Atomic Absorption Screening (AAS) Rb efflux assay of hKir3.1/Kir3.4 block, carbachol/high K+ stimulated, 10-pt or 7-pt CR. It counts as cell-based. As to conditions: 7-pt CR (0.037 to 27 μmol/L), AAS Rb efflux, CHO-K1 cells expressing hKir3.1/Kir3.4; mean of >3 replicates; read-out: IKACh IC50 7-pt CR, AAS. Summed up: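 Mean IC50s derive from >4 replicates over 0.003–67 μmol/L (10-point) or >3 replicates over 0.037–27 μmol/L (7-point), both threefold steps. Rb-loaded (3 h, 37° C) CHO-K1 cells stably expressing hKir3.1/Kir3.4 saw compound for 5 min at RT before 10-min channel opening by carbachol 10 μM/KCl 20 mM final. Released Rb was quantified by atomic absorption.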
By pIC50 is commonly meant the negative decadic logarithm of the IC50, by convention in mol/L. On to `CC(C)[C@@H](CN1CCCC1)N(C)C(=O)c1ccc(Cl)c(Cl)c1` [Example 16.51, (S)-3,4-Dichloro-N-methyl-N-(3-methyl-1-(pyrrolidin-1-yl)butan-2-yl)benzamide], for which the pIC50 was 6.34.

`CC(C)[C@@H](CN1CCCCC1)N(C)C(=O)c1ccc(F)cc1Cl` [Example 16.26, 2-Chloro-4-fluoro-N-methyl-N-[(1S)-2-methyl-1-(piperidin-1-yl-methyl)propyl]benzamide]: the pIC50 was 5.32.

The assay is the same for the next values; noted with them: 10-pt CR (0.003 to 67 μmol/L), AAS Rb efflux, CHO-K1 cells expressing hKir3.1/Kir3.4; mean of >4 replicates; read-out: IKACh IC50 10-pt CR, AAS.
Turning to `CCN(C(=O)c1ccc(Cl)cc1)[C@H](CN1CCCC1)C(C)C` [Example 15.3, (S)-4-Chloro-N-ethyl-N-(3-methyl-1-(pyrrolidin-1-yl)butan-2-yl)benzamide], the pIC50 was 5.13. The same measure, in the same setting: next, `COc1ccc(C(=O)N(C)[C@@H](CN2CC(O)C2)C2CCC2)cc1F` [Example 35.13, N-[(1R)-1-Cyclobutyl-2-(3-hydroxyazetidin-1-yl)ethyl]-3-fluoro-4-methoxy-N-methylbenzamide]: 4.96; `Cc1cc(C(=O)N(C)[C@H](CN2CC[C@@H](O)C2)C(C)C)ccc1F` [Example 17.3, 4-Fluoro-N—((S)-1-((R)-3-hydroxypyrrolidin-1-yl)-3-methylbutan-2-yl)-N,3-dimethylbenzamide]: 4.96. On to `CN(C(=O)c1ccc(C#N)cc1F)[C@H](CN1CC(O)C1)C1CCCCC1` [Example 36.4, 4-Cyano-N-[(1S)-1-cyclohexyl-2-(3-hydroxyazetidin-1-yl)ethyl]-2-fluoro-N-methylbenzamide], for which the pIC50 was 6.48. As to `Cc1cc(C(=O)N(C)[C@@H](CN2CCC(O)CC2)C(C)C)ccc1F` [Example 25, (R)-4-Fluoro-N-(1-(4-hydroxypiperidin-1-yl)-3-methylbutan-2-yl)-N,3-dimethylbenzamide], the pIC50 is 4.77. For the compound `CCC[C@@H](CN1C[C@H](O)[C@H]1C)N(C)C(=O)c1ccc(F)c(F)c1` (relative stereo) [Example 43.3, 3,4-Difluoro-N—((S)-1-((2R*,3S*)-3-hydroxy-2-methylazetidin-1-yl)pentan-2-yl)-N-methylbenzamide], the pIC50 was 5.57. Same read-out and setting: then `CO[C@H](C)[C@@H](CN1CCCC1)N(C)C(=O)c1cccc(C)c1` [Example 3.2, N-((2R,3R)-3-Methoxy-1-(pyrrolidin-1-yl)butan-2-yl)-N,3-dimethylbenzamide], with 4.70; and `CC[C@@H](CN1CC(O)C1)N(C)C(=O)c1ccc(Cl)c(F)c1` [Example 39.11, (S)-4-Chloro-3-fluoro-N-(1-(3-hydroxyazetidin-1-yl)butan-2-yl)-N-methylbenzamide], with 5.80.

For the compound `CN(C(=O)c1ccc(F)c(Cl)c1)[C@H](CN1CC(O)(C2CC2)C1)C1CC1` [Example 9.2, (S)-3-Chloro-N-(1-cyclopropyl-2-(3-cyclopropyl-3-hydroxyazetidin-1-yl)ethyl)-4-fluoro-N-methylbenzamide], the pIC50 is 5.92.

Take `CCC[C@@H](CN1CCC1)N(C)C(=O)c1ccc(Br)cc1` [Example 1.3, (S)-N-(1-(Azetidin-1-yl)pentan-2-yl)-4-bromo-N-methylbenzamide]: the negative logarithm of the IC50 (pIC50) is 5.51. As to `CC(C)[C@@H](CN1CC[C@@H](O)C1)N(C)C(=O)c1ccc(F)c(Cl)c1` [Example 17.6, 3-Chloro-4-fluoro-N—((S)-1-((R)-3-hydroxypyrrolidin-1-yl)-3-methylbutan-2-yl)-N-methylbenzamide], the negative-log IC50 (pIC50) is 4.92.

As to `CC(C)[C@@H](CN1CC[C@@H](O)C1)N(C)C(=O)c1ccc(Cl)cc1` [Example 17.4, 4-Chloro-N—((S)-1-((R)-3-hydroxypyrrolidin-1-yl)-3-methylbutan-2-yl)-N-methylbenzamide], the pIC50 was 4.77. Same read-out and setting: then `COc1cc(C(=O)N(C)[C@@H](CC(C)C)CN2CC(O)C2)ccc1F` [Example 38.5, 4-Fluoro-N-[(2S)-1-(3-hydroxyazetidin-1-yl)-4-methylpentan-2-yl]-3-methoxy-N-methylbenzamide], with 5.38; and `COC[C@@H]1CCCN1C[C@H](C(C)C)N(C)C(=O)c1ccc(Cl)cc1` [Example 3.19, 4-Chloro-N-((S)-1-((S)-2-(methoxymethyl)pyrrolidin-1-yl)-3-methylbutan-2-yl)-N-methylbenzamide], with 5.22; and `CC(C)[C@@H](CCN1CCCC1)N(C)C(=O)c1cccc(Cl)c1` [Example 13.3, (R)-3-Chloro-N-methyl-N-(4-methyl-1-(pyrrolidin-1-yl)pentan-3-yl)benzamide], with 4.72. For the compound `CC[C@H](C)[C@@H](CN1CCCC1)N(C)C(=O)c1ccc(Br)cc1` [Example 2.4, 4-Bromo-N-methyl-N-((2S,3S)-3-methyl-1-(pyrrolidin-1-yl)pentan-2-yl)benzamide], the pIC50 was 5.74. Take `CC[C@H](C)[C@@H](CN1CC(O)C1)N(C)C(=O)c1ccc(OC)cc1` [Example 29.6, N-((2S,3S)-1-(3-Hydroxyazetidin-1-yl)-3-methylpentan-2-yl)-4-methoxy-N-methylbenzamide]: the negative-log IC50 (pIC50) was 5.80. The same measure, in the same setting: then `CCCC[C@@H](CN1CC(O)C1)N(C)C(=O)c1cccc(C(F)F)c1` [Example 33.10, 3-(Difluoromethyl)-N-[(2S)-1-(3-hydroxyazetidin-1-yl)hexan-2-yl]-N-methylbenzamide], with 5.96; and `CC[C@@H](CN1CC(O)C1)N(C)C(=O)c1ccc(F)c(C)c1` [Example 8.17, (S)-4-Fluoro-N-(1-(3-hydroxyazetidin-1-yl)butan-2-yl)-N,3-dimethylbenzamide], with 5.70.

As for `CN(C(=O)c1ccc(F)cc1F)[C@H](CN1CC(O)C1)C1CCC1` [Example 39.4, (S)—N-(1-Cyclobutyl-2-(3-hydroxyazetidin-1-yl)ethyl)-2,4-difluoro-N-methylbenzamide], the negative-log IC50 (pIC50) is 5.11. On the same count and under the same terms, next, `CN(C(=O)c1ccc(Cl)c(Cl)c1)[C@H](CN1CCCC1)C(C)(C)C` [Example 2.1, (S)-3,4-Dichloro-N-(3,3-dimethyl-1-(pyrrolidin-1-yl)butan-2-yl)-N-methylbenzamide]: 4.96.

The assay is the same for the next values; noted with them: printed as IC50 >67 μM in the 10-pt CR assay or IC50 >27 μM in the 7-pt CR assay; assay format per compound not stated; read-out: IC50.
Take `CC(C)[C@@H](CN1CCCCC1)N(C)C(=O)c1cc(F)cc(F)c1F` [2,3,5-Trifluoro-N-methyl-N-[(1S)-2-methyl-1-(piperidin-1-ylmethyl)propyl]benzamide]: the pIC50 is less than 4.57. Regarding `CC(C)[C@@H](CN1CC[C@H](O)C1)N(C)C(=O)c1cccc(C#N)c1` [3-Cyano-N-[(1S)-1-{[(3S)-3-hydroxypyrrolidin-1-yl]methyl}-2-methylpropyl]-N-methylbenzamide], the negative logarithm of the IC50 (pIC50) is less than 4.57. For the compound `CC(C)[C@H](CN1CCCC1)N(C)C(=O)c1cccc(C#N)c1` [3-Cyano-N-methyl-N-[(1R)-2-methyl-1-(pyrrolidin-1-ylmethyl)propyl]benzamide], the pIC50 is less than 4.57.

Regarding `Cc1cc(C(=O)N(C)[C@H](CN2CCC(F)(F)CC2)C(C)C)ccc1F` [(S)-N-(1-(4,4-Difluoropiperidin-1-yl)-3-methylbutan-2-yl)-4-fluoro-N,3-dimethylbenzamide], the pIC50 is less than 4.57. Same read-out and setting: next, `CC(C)[C@@H](CN1CC(C)(O)C1)N(C)C(=O)c1ccccc1` [(S)-N-(1-(3-Hydroxy-3-methylazetidin-1-yl)-3-methylbutan-2-yl)-N-methylbenzamide]: less than 4.57; `CC(C)[C@@H](CN1CC(C)(O)C1)N(C)C(=O)c1ccc(F)c(F)c1` [(S)-3,4-Difluoro-N-(1-(3-hydroxy-3-methylazetidin-1-yl)-3-methylbutan-2-yl)-N-methylbenzamide]: less than 4.57.
